Assay results as given in PMC8587849, “Antimicrobial and Anticancer Application of Silver(I) Dipeptide Complexes” (Molecules, 2021).
Values joined by “and” are separate entries in the source; they are usually repeats but may differ in a detail not shown here. Identical values can stand only once.

Tests used:
[1] = system: Candida albicans SC 5314; assay: Antifungal activity (yeast), macrodilution method; type: cell-based; conditions: C. albicans
Protocol: (§4) Cultures of bacteria (in Mueller-Hinton broth, MHB) and yeasts (in Sabouraud’s growth medium, SB) were incubated under shaking (250 rpm) at 37 °C. The growth of bacteria and yeasts was evaluated by measuring the absorbance of the growing cultures (A550) until the cultures reached the stationary growth phase. […] During culturing, the diameters of growing fungal colonies were measured at regular intervals [71, 72]. […] The final concentration of DMSO never exceeded 1.0 vol. % in the control or treated samples. […] The IC50 and MIC90 with respect to MIC80 values were evaluated from toxicity curves.

[2] = system: methicillin-resistant Staphylococcus aureus L12; assay: Antibacterial activity, macrodilution method; type: cell-based; conditions: S. aureus L12 (MRSA)
Protocol: (§5) Cultures of bacteria (in Mueller-Hinton broth, MHB) and yeasts (in Sabouraud’s growth medium, SB) were incubated under shaking (250 rpm) at 37 °C. The growth of bacteria and yeasts was evaluated by measuring the absorbance of the growing cultures (A550) until the cultures reached the stationary growth phase. […] The final concentration of DMSO never exceeded 1.0 vol. % in the control or treated samples. […] The IC50 and MIC90 with respect to MIC80 values were evaluated from toxicity curves.

[3] = system: Escherichia coli (E. coli) CCM 3988; assay: Antibacterial activity, macrodilution method; type: cell-based
Protocol: as §5

[4] = system: Staphylococcus epidermidis CCM 7221; assay: Antibacterial activity, macrodilution method; type: cell-based; conditions: S.epidermidis
Protocol: as §5

[5] = system: MDA-MB-231 cells; assay: Cell cycle analysis by flow cytometry; type: cell-based, human; conditions: treated with IC50
Protocol: (§1) Prior to each analysis, cells were washed in PBS, followed by resuspending in staining solution (0.5 mg/mL ribonuclease A, 0.2% final concentration Triton X-100, propidium iodide 0.025 mg/mL in 500 µL PBS) (all Sigma Aldrich), and incubated for 30 min at room temperature in the dark. For analysis of stained cells, a BD FACSCalibur flow cytometer (BD Bio-sciences) was used. A minimum of 1 × 10^4 events were analysed per analysis.

[6] = system: Jurkat cells; assay: Cell cycle analysis by flow cytometry; type: cell-based, human; conditions: treated with IC50
Protocol: as §1

[7] = system: BLM cells; assay: Cell cycle analysis by flow cytometry; type: cell-based, human; conditions: treated with IC50
Protocol: as §1

[8] = system: HCT116 cells; assay: Cell cycle analysis by flow cytometry; type: cell-based, human; conditions: treated with IC50
Protocol: as §1

[9] = system: Rhizopus oryzae CCM F-8284; assay: Antifungal activity (filamentous fungi), macrodilution on solidified PDA; type: cell-based
Protocol: as §4

[10] = system: Microsporum gypseum CCM F-8342; assay: as above; type: cell-based; conditions: M.gypseum
Protocol: as §4

[11] = system: BJ-5ta; assay: MTS assay on fibroblasts; type: cell-based; conditions: BJ-5ta human skin fibroblasts, 72 h
Protocol: (§2) After 72 h of incubation, 10 µL of MTS was added to each well. […] IC50 values were calculated from MTS analyses.

[12] = system: CT DNA; assay: UV-Vis absorption titration with CT DNA; type: binding, calf; conditions: 0.01 M Tris-HCl pH 7.4; complex 7.85 × 10^−5 M
Protocol: UV–vis spectra were measured in 0.01 M Tris-HCl buffer (pH 7.4) using a Varian Cary 100 Bio spectrophotometer in the range of 230–320 nm and recorded at room temperature (24 °C) using a quartz cuvette of 1 cm path length. The concentration of investigated Ag(I) complexes was 7.85 × 10^−5 M. During the titration, an aliquot of buffered CT DNA solution was added to each cuvette (sample and reference) to eliminate the absorbance of DNA itself. The DNA concentration per nucleotide was determined by absorption spectroscopy using the molar absorption coefficient (6600 M^−1cm^−1) at 260 nm.

[13] = system: MCF-7; assay: MTS antiproliferative assay; type: cell-based, human; conditions: 72 h
Protocol: as §2

[14] = system: HeLa; assay: MTS antiproliferative assay; type: cell-based, human; conditions: 72 h
Protocol: as §2

[15] = system: CT DNA–HO system; assay: Fluorescence competitive binding with Hoechst 33258; parameters: species or system calf; conditions: displacement of Hoechst 33258 from CT DNA; 462 nm; 10 mM Tris-HCl pH 7.4
Protocol: The fluorescence competitive binding studies of silver(I) complexes with Hoechst 33 258 (HO) were performed on a Varian Cary Eclipse spectrophotometer. The emission spectra of DNA–HO were measured in the range of 400–550 nm using an excitation wavelength of 343 nm with a slit width of 5 nm for the excitation and 5 nm for the emission beam. […] Ksv quenching constant was determined according to the classical Stern-Volmer Equation (1) in [63, 75]:F0/F = 1 + KSV [Q](1) where F0 and F are the fluorescence intensities in the absence and the presence of the quencher at 462 nm, KSV is the Stern-Volmer quenching constant and [Q] is the concentration of the quencher.

[16] = system: S. aureus biofilm; assay: Influence on S. aureus biofilm formation, crystal violet staining; type: cell-based; conditions: for A570 (biofilm, crystal violet): control A570 = 0.47; for I: biofilm intensity: control strong
Protocol: The biofilm was qualified by the crystal violet staining method. Briefly, overnight cultures of bacteria S.aureus (in MHB) and yeasts C.parapsislosis (in SB) were prepared. The fresh prepared growth media MHB and SB were inoculated with the overnight culture for a final concentration of 5 × 10^6 cells mL^−1. The microbial biofilm was formed in 96-well microplates for adherent cells. […] Prepared cultures were incubated for 2 h at 37 °C. […] The treatment with DMSO (solvent) alone served as a control. The inoculated microplates were incubated at 37 °C for the next 46 h. […] Microplates with mature biofilm were decanted and washed using 200 μL of saline solution. The plate was left for 15 min to dry completely at laboratory temperature. Then, 110 μL of 0.4% crystal violet dye was added to each well, and the plate was incubated for 15 min at laboratory temperature. After the decantation, the plate was washed 3 times with 200 μL of saline solution. Then, 200 μL of 96% ethanol was added. The microplate was left to incubate for 15 min at laboratory temperature. After the transfer of the well content to a clean microplate, the absorbance (570 nm) of released crystal violet (proportionate to biofilm cell density) was measured,, and the values were evaluated as weak biofilm formation A570 <0.1; 0.199>, medium biofilm formation A570 <0.2; 0.3>, strong biofilm formation A570 <0.301; 0.999>, or very strong biofilm formation A570 ≥ 1.00.

[17] = system: Alternaria alternata CCM F-128; assay: Antifungal activity (filamentous fungi), macrodilution on solidified PDA; type: cell-based; conditions: A. alternata
Protocol: as §4

[18] = system: HCT116; assay: MTS antiproliferative assay; type: cell-based, human; conditions: 72 h
Protocol: (§3) Cells were maintained in standard conditions with an atmosphere containing 5% CO2 at 37 °C.
as §2

[19] = system: Jurkat; assay: MTS antiproliferative assay; type: cell-based, human; conditions: 72 h
Protocol: as §3, §2

[20] = system: MDA-MB-231; assay: MTS antiproliferative assay; type: cell-based, human; conditions: 72 h
Protocol: as §3, §2

[21] = system: BLM; assay: MTS antiproliferative assay; type: cell-based, human
Protocol: as §3, §2

[22] = system: Candida parapsilosis ATCC 22019; assay: Antifungal activity (yeast), macrodilution method; type: cell-based; conditions: C. parapsilosis
Protocol: as §5

[23] = system: Staphylococcus aureus CCM 3953; assay: Antibacterial activity, macrodilution method; type: cell-based; conditions: S. aureus
Protocol: as §5

[24] = system: A.flavus; assay: Antifungal activity (filamentous fungi); type: cell-based; conditions: read-out: IC50 and MIC100 (class symbol)
Protocol: as §4

Work on [Ag2(GlyAla)(NO3)2]n [AgGlyAla] yielded an IC50 [1] of 50 µM, an MIC80 [1] of 87 µM and an IC50 [2] of 9 µM. It also gave an MIC90 [2] of 20 µM, an IC50 [3] of 6 µM and an MIC90 [3] of 9 µM. For the same substance, the IC50 [4] was 8 µM, the MIC90 [4] was 10 µM and the “cells in G2/M” value ([5]; 24 h) was 22.8 ± 2.5% and 22.8%. The “cells in S” value ([5]; 24 h) was 11.2 ± 2.0%, the “cells in G2/M” value ([5]; 48 h) was 19.4 ± 0.1% and the “cells in S” value ([5]; 48 h) was 11.1 ± 0.7%. The “cells in G2/M” value ([6]; 48 h) was 17.9 ± 1.8%, the “cells in S” value ([6]; 48 h) was 12.6 ± 0.5% and the “cells in G2/M” value ([6]; 72 h) was 10.3 ± 3.1%. For the same substance, the “cells in S” value ([6]; 72 h) was 12.1 ± 1.8%, the “cells in G2/M” value ([7]; 48 h) was 28.9 ± 2.7% and the “cells in S” value ([7]; 48 h) was 19.5 ± 0.1%. For the same substance, the “cells in G2/M” value ([7]; 72 h) was 27.3 ± 1.3%, the “cells in S” value ([7]; 72 h) was 18.8 ± 0.4% and the “cells in G2/M” value ([8]; 48 h) was 14.0 ± 0.4%. The “cells in S” value ([8]; 48 h) was 7.0 ± 0.3%, the “cells in G2/M” value ([8]; 72 h) was 7.6 ± 1.7% and the “cells in S” value ([8]; 72 h) was 8.1 ± 1.2%. The IC50 ([9]; read-out: IC50) was 30 µM, the MIC100 ([9]; suffix s = fungistatic) was 50 µM and the IC50 ([10]; read-out: IC50) was 75 µM. It also gave an MIC100 ([10]; suffix s = fungistatic) of 100 µM, an IC50 [11] of 40.2 µM and a Hypochromism [12] of 40.7%. The “Δλmax (red shift on addition of CT DNA)” value [12] was 9 nm, the IC50 [13] was 7.5 µM and the IC50 [14] was 33.2 µM. For the same substance, the “KSV (Stern-Volmer quenching constant)” value [15] was 7.97 ± 0.03 × 10^4 M^−1, the “A570 (biofilm, crystal violet)” value ([16]; complex concentration 5 µM) was 0.51 and the “I: biofilm intensity” value ([16]; complex concentration 5 µM) was “strong (strong biofilm formation A570 <0.301; 0.999>)”. The “A570 (biofilm, crystal violet)” value ([16]; complex concentration 10 µM) was 0.41, the “I: biofilm intensity” value ([16]; complex concentration 10 µM) was “strong (strong biofilm formation A570 <0.301; 0.999>)” and the “A570 (biofilm, crystal violet)” value ([16]; complex concentration 25 µM) was 0.25. The “A570 (biofilm, crystal violet)” value ([16]; complex concentration 50 µM) was 0.23, the “A570 (biofilm, crystal violet)” value ([16]; complex concentration 100 µM) was 0.25 and the “I: biofilm intensity” value ([16]; complex concentration 100 µM) was “medium (medium biofilm formation A570 <0.2; 0.3>)”. For the same substance, the IC50 ([17]; read-out: IC50) was 42 µM, the MIC100 ([17]; suffix s = fungistatic) was over 100 µM and the IC50 [18] was 28 µM. The IC50 [19] was 9.7 µM, the IC50 [20] was 7.4 µM and the IC50 ([21]; BLM, MTS, 72 h) was 10.9 µM. For the same substance, the “Selectivity index (SI)” value ([21]; ratio of IC50 values BJ-5ta/BLM) was 3.7, the IC50 [22] was 30 µM and the MIC80 [22] was 60 µM. For the same substance, the IC50 [23] was 7 µM, the MIC90 [23] was 11 µM and the IC50 [24] was over 100 µM.
